{"source": "BindingDB's records for doi:10.1016/s0960-894x(99)00462-x", "about": "(Abbott Laboratories, 1999)"}
{"test": "Nicotinic acetylcholine receptor binding activity was determined by ability to displace [125I]alpha-BgT binding to rat brain membrane", "units": {"Ki": "µM"}}
{"compound": "CN1CC[C@@H](Oc2cccnc2)C1", "note": "[3-((R)-1-Methyl-pyrrolidin-3-yloxy)-pyridine]", "Ki": "> 10"}
{"compound": "CN1CC[C@H](Oc2cccnc2)C1", "note": "[3-((S)-1-Methyl-pyrrolidin-3-yloxy)-pyridine]", "Ki": "> 10"}
{"compound": "c1ncc(OC[C@@H]2CCN2)cn1", "note": "[5-((S)-1-Azetidin-2-ylmethoxy)-pyrimidine]", "Ki": "> 10"}
{"compound": "CN1CC[C@H]1COc1cncnc1", "note": "[5-((S)-1-Methyl-azetidin-2-ylmethoxy)-pyrimidine]", "Ki": "> 10"}
